Results taken from ChEMBL document CHEMBL3885861, “Open TG-GATES”.

Species: Rattus norvegicus
Test: Open TG-GATES - Regimen: Single
Type: toxicity, organism-based, Sprague-Dawley
Design: regimen Single, gender Male, age 6 weeks
Details: in vivo, iv, route intravenous injection; for MCV / Mono / Neu / PT / Plat / RBC / Ret / WBC / APTT / Bas / Eos / Fbg / Ht / Lym / Hb / MCH / MCHC: tissue Blood; for KIDNEY_L / KIDNEY_R / KIDNEY_TOTAL: tissue Kidney; for LIVER: tissue Liver
[1] = 30 mg/kg, 3 h, dose level Middle
[2] = 30 mg/kg, 3 h, tissue Plasma, dose level Middle
[3] = 30 mg/kg, 6 h, dose level Middle
[4] = 30 mg/kg, 6 h, tissue Plasma, dose level Middle
[5] = 30 mg/kg, 9 h, dose level Middle
[6] = 30 mg/kg, 9 h, tissue Plasma, dose level Middle
[7] = 30 mg/kg, 24 h, dose level Middle
[8] = 30 mg/kg, 24 h, tissue Plasma, dose level Middle
[9] = 100 mg/kg, 3 h, dose level High
[10] = 100 mg/kg, 3 h, tissue Plasma, dose level High
[11] = 100 mg/kg, 6 h, dose level High
[12] = 100 mg/kg, 6 h, tissue Plasma, dose level High
[13] = 100 mg/kg, 9 h, dose level High
[14] = 100 mg/kg, 9 h, tissue Plasma, dose level High
[15] = 100 mg/kg, 24 h, dose level High
[16] = 100 mg/kg, 24 h, tissue Plasma, dose level High

Sequence: GENTAMICIN
- MCV [1]: 62.9 fL
- Mono [1]: 3.2%
- Neu [1]: 16.4%
- PT [1]: 16.2 s
- Plat [1]: 131.2 x10_4/uL
- RBC [1]: 626.2 x10_4/ul
- Ret [1]: 6.5%
- WBC [1]: 81.8 x10_2/uL
- KIDNEY_L [1]: 0.9 g
- KIDNEY_R [1]: 0.9 g
- KIDNEY_TOTAL [1]: 1.8 g
- LIVER [1]: 9.6 g
- ALT [2]: 42.6 IU/L
- AST [2]: 82.2 IU/L
- CRE [2]: 0.1 mg/dL
- DBIL [2]: 0.004 mg/dL
- GLC [2]: 182 mg/dL
- IP [2]: 8.1 mg/dL
- K [2]: 4.3 meq/L
- LDH [2]: 251.4 IU/L
- PL [2]: 133.2 mg/dL
- RALB [2]: 2.9 g/dL
- TBIL [2]: 0.02 mg/dL
- TC [2]: 62.4 mg/dL
- TG [2]: 99.2 mg/dL
- TP [2]: 5.3 g/dL
- gamma-GTP [2]: 1.4 IU/L
- TERMINAL_BW [3]: 210.3 g
- APTT [3]: 23.2 s
- Bas [3]: 0%
- Eos [3]: 0.4%
- Fbg [3]: 291.6 mg/dL
- Ht [3]: 39.5%
- Lym [3]: 77.6%
- MCV [3]: 62 fL
- Mono [3]: 3.4%
- PT [3]: 16 s
- Plat [3]: 119.1 x10_4/uL
- RBC [3]: 636.4 x10_4/ul
- Ret [3]: 6.3%
- WBC [3]: 117 x10_2/uL
- KIDNEY_L [3]: 0.9 g
- KIDNEY_R [3]: 1 g
- KIDNEY_TOTAL [3]: 1.9 g
- LIVER [3]: 8.7 g
- ALP [4]: 1316 IU/L
- ALT [4]: 35 IU/L
- AST [4]: 68.8 IU/L
- BUN [4]: 9.4 mg/dL
- CRE [4]: 0.1 mg/dL
- DBIL [4]: 0.002 mg/dL
- GLC [4]: 177.2 mg/dL
- IP [4]: 9 mg/dL
- K [4]: 4.3 meq/L
- PL [4]: 139.4 mg/dL
- RALB [4]: 3 g/dL
- TBIL [4]: 0.024 mg/dL
- TC [4]: 74.6 mg/dL
- TG [4]: 84.4 mg/dL
- TP [4]: 5.3 g/dL
- gamma-GTP [4]: 1 IU/L
- TERMINAL_BW [5]: 213 g
- APTT [5]: 24 s
- Bas [5]: 0%
- Eos [5]: 1%
- Fbg [5]: 294.6 mg/dL
- Hb [5]: 13 g/dL
- Ht [5]: 38.6%
- Lym [5]: 77.4%
- MCH [5]: 21 pg
- MCHC [5]: 33.6%
- Mono [5]: 3%
- Neu [5]: 17.2%
- PT [5]: 16.2 s
- Plat [5]: 122.8 x10_4/uL
- RBC [5]: 617.4 x10_4/ul
- Ret [5]: 5.8%
- WBC [5]: 109.5 x10_2/uL
- KIDNEY_L [5]: 1 g
- KIDNEY_R [5]: 1 g
- KIDNEY_TOTAL [5]: 2 g
- LIVER [5]: 8.5 g
- ALP [6]: 1266.6 IU/L
- ALT [6]: 34.4 IU/L
- AST [6]: 72 IU/L
- BUN [6]: 10.8 mg/dL
- CRE [6]: 0.1 mg/dL
- DBIL [6]: 0.002 mg/dL
- GLC [6]: 175.2 mg/dL
- IP [6]: 9.5 mg/dL
- K [6]: 4.4 meq/L
- LDH [6]: 134.6 IU/L
- Na [6]: 144.2 meq/L
- PL [6]: 134.2 mg/dL
- RALB [6]: 2.9 g/dL
- TBIL [6]: 0.022 mg/dL
- TC [6]: 73.8 mg/dL
- TG [6]: 49.4 mg/dL
- TP [6]: 5.2 g/dL
- gamma-GTP [6]: 1.6 IU/L
- TERMINAL_BW [7]: 228.1 g
- APTT [7]: 22.7 s
- Bas [7]: 0%
- Eos [7]: 0.8%
- Fbg [7]: 295.4 mg/dL
- Hb [7]: 12.9 g/dL
- Ht [7]: 38%
- Lym [7]: 76.6%
- MCHC [7]: 34%
- MCV [7]: 61.3 fL
- Mono [7]: 4%
- Neu [7]: 18%
- PT [7]: 16.4 s
- Plat [7]: 115.7 x10_4/uL
- RBC [7]: 621.4 x10_4/ul
- Ret [7]: 6%
- WBC [7]: 112.3 x10_2/uL
- KIDNEY_L [7]: 1 g
- KIDNEY_R [7]: 1 g
- KIDNEY_TOTAL [7]: 2 g
- LIVER [7]: 10.2 g
- ALP [8]: 1367.4 IU/L
- ALT [8]: 41.4 IU/L
- BUN [8]: 15.6 mg/dL
- CRE [8]: 0.2 mg/dL
- DBIL [8]: 0.004 mg/dL
- IP [8]: 7.2 mg/dL
- K [8]: 4.1 meq/L
- LDH [8]: 137.2 IU/L
- PL [8]: 153.2 mg/dL
- RALB [8]: 3 g/dL
- TBIL [8]: 0.02 mg/dL
- TC [8]: 81.4 mg/dL
- TG [8]: 101.6 mg/dL
- TP [8]: 5.4 g/dL
- gamma-GTP [8]: 1 IU/L
- TERMINAL_BW [9]: 221.2 g
- APTT [9]: 22.7 s
- Bas [9]: 0%
- Eos [9]: 1%
- Fbg [9]: 284 mg/dL
- Ht [9]: 37.3%
- Lym [9]: 72%
- MCV [9]: 63.9 fL
- Mono [9]: 3%
- Neu [9]: 23.3%
- Plat [9]: 123.5 x10_4/uL
- RBC [9]: 584 x10_4/ul
- Ret [9]: 6.4%
- WBC [9]: 86 x10_2/uL
- KIDNEY_L [9]: 1 g
- KIDNEY_R [9]: 1 g
- KIDNEY_TOTAL [9]: 1.9 g
- LIVER [9]: 9.9 g
- ALP [10]: 1392.3 IU/L
- ALT [10]: 41.3 IU/L
- AST [10]: 82.7 IU/L
- BUN [10]: 13 mg/dL
- CRE [10]: 0.1 mg/dL
- Ca [10]: 11 mg/dL
- DBIL [10]: 0.0067 mg/dL
- GLC [10]: 177.3 mg/dL
- IP [10]: 7.9 mg/dL
- K [10]: 4.1 meq/L
- LDH [10]: 155.3 IU/L
- PL [10]: 129.7 mg/dL
- RALB [10]: 2.8 g/dL
- TBIL [10]: 0.03 mg/dL
- TC [10]: 69.3 mg/dL
- TG [10]: 71.7 mg/dL
- TP [10]: 5.2 g/dL
- gamma-GTP [10]: 1 IU/L
- TERMINAL_BW [11]: 211.7 g
- APTT [11]: 24.2 s
- Bas [11]: 0%
- Eos [11]: 0.8%
- Fbg [11]: 292 mg/dL
- Ht [11]: 39.4%
- Lym [11]: 74.2%
- MCH [11]: 21 pg
- MCHC [11]: 33.9%
- MCV [11]: 61.9 fL
- Mono [11]: 3.6%
- Neu [11]: 20.6%
- PT [11]: 15.9 s
- Plat [11]: 126.2 x10_4/uL
- RBC [11]: 637 x10_4/ul
- Ret [11]: 6.6%
- WBC [11]: 92.6 x10_2/uL
- KIDNEY_L [11]: 0.9 g
- KIDNEY_R [11]: 0.9 g
- KIDNEY_TOTAL [11]: 1.8 g
- LIVER [11]: 8.4 g
- ALP [12]: 1407.2 IU/L
- ALT [12]: 34.8 IU/L
- AST [12]: 67.6 IU/L
- CRE [12]: 0.1 mg/dL
- DBIL [12]: 0.004 mg/dL
- GLC [12]: 176.2 mg/dL
- IP [12]: 9 mg/dL
- K [12]: 4.7 meq/L
- LDH [12]: 165.8 IU/L
- PL [12]: 144.4 mg/dL
- RALB [12]: 2.9 g/dL
- TBIL [12]: 0.02 mg/dL
- TG [12]: 98.6 mg/dL
- TP [12]: 5.2 g/dL
- gamma-GTP [12]: 1.2 IU/L
- TERMINAL_BW [13]: 211.4 g
- APTT [13]: 22.4 s
- Bas [13]: 0%
- Eos [13]: 0.8%
- Fbg [13]: 296.4 mg/dL
- Hb [13]: 12.9 g/dL
- Ht [13]: 38.7%
- Lym [13]: 80.6%
- MCH [13]: 20.6 pg
- MCHC [13]: 33.3%
- MCV [13]: 61.9 fL
- Mono [13]: 3.2%
- Plat [13]: 120.1 x10_4/uL
- RBC [13]: 625.2 x10_4/ul
- Ret [13]: 6.4%
- WBC [13]: 76.1 x10_2/uL
- KIDNEY_L [13]: 0.9 g
- KIDNEY_R [13]: 1 g
- KIDNEY_TOTAL [13]: 1.9 g
- LIVER [13]: 8.6 g
- ALP [14]: 1221 IU/L
- ALT [14]: 30.8 IU/L
- AST [14]: 65.6 IU/L
- BUN [14]: 12.8 mg/dL
- CRE [14]: 0.1 mg/dL
- Ca [14]: 11 mg/dL
- DBIL [14]: 0.002 mg/dL
- GLC [14]: 174.6 mg/dL
- IP [14]: 9.4 mg/dL
- K [14]: 4.7 meq/L
- LDH [14]: 145.2 IU/L
- PL [14]: 144 mg/dL
- RALB [14]: 2.9 g/dL
- TBIL [14]: 0.016 mg/dL
- TC [14]: 77 mg/dL
- TG [14]: 70.4 mg/dL
- TP [14]: 5.3 g/dL
- gamma-GTP [14]: 1 IU/L
- TERMINAL_BW [15]: 225.5 g
- APTT [15]: 23.2 s
- Bas [15]: 0%
- Eos [15]: 1%
- Fbg [15]: 301.2 mg/dL
- Hb [15]: 13.6 g/dL
- Ht [15]: 39.5%
- Lym [15]: 77.4%
- MCHC [15]: 34.4%
- MCV [15]: 60.8 fL
- Mono [15]: 4.8%
- PT [15]: 16.4 s
- Plat [15]: 122.8 x10_4/uL
- RBC [15]: 649.4 x10_4/ul
- Ret [15]: 5.4%
- WBC [15]: 96.8 x10_2/uL
- KIDNEY_L [15]: 1 g
- KIDNEY_R [15]: 1 g
- KIDNEY_TOTAL [15]: 2 g
- LIVER [15]: 9.6 g
- ALP [16]: 1293.2 IU/L
- ALT [16]: 37.8 IU/L
- AST [16]: 66.4 IU/L
- CRE [16]: 0.1 mg/dL
- DBIL [16]: 0.002 mg/dL
- GLC [16]: 186.4 mg/dL
- IP [16]: 7.7 mg/dL
- K [16]: 4.2 meq/L
- LDH [16]: 159.2 IU/L
- PL [16]: 162.4 mg/dL
- RALB [16]: 3.1 g/dL
- TBIL [16]: 0.018 mg/dL
- TC [16]: 82.4 mg/dL
- TG [16]: 110.2 mg/dL
- TP [16]: 5.5 g/dL
- gamma-GTP [16]: 1.2 IU/L
